Reference: ChEMBL document CHEMBL6083262, “Stereorandomized Oncocins with Preserved Ribosome Binding and Antibacterial Activity” (J Med Chem, 2024)
≈ marks a conversion by molar mass, not a printed value. Calls of active or inactive are those of the source. No cut-off for these calls is given here. Positions of bridges follow the written chain, without caps; N, C: chain ends. Non-standard residues stand in square brackets, D forms with d. Residues, ends and D or L forms follow the SMILES beside them. *: point of attachment. X1 = CC[C@H](C)CCCCC(=O)*; Orn = NCCC[C@H](N)C(=O)O; Dab = NCC[C@H](N)C(=O)O

Legend:
Klebsiella pneumoniae [1] = assay: Antimicrobial activity against Klebsiella pneumoniae NCTC 418 incubated for 16 to 20 hrs in 12.5 % muller hinton medium by broth microdilution method; type: functional; details: time 16-20 hrs
Pseudomonas aeruginosa [2] = assay: Antimicrobial activity against Pseudomonas aeruginosa PAO1 incubated for 16 to 20 hrs in full muller hinton medium by broth microdilution method; type: functional; details: time 16-20 hrs
Pseudomonas aeruginosa [3] = assay: Antibacterial activity against multidrug-resistant Pseudomonas aeruginosa PA14 incubated for 16 to 20 hrs in full muller hinton medium by broth microdilution method; type: functional; details: time 16-20 hrs
Pseudomonas aeruginosa [4] = assay: Antibacterial activity against multidrug-resistant Pseudomonas aeruginosa PA14 4.13 harboring phoQ mutant incubated for 16 to 20 hrs in full muller hinton medium by broth microdilution method; type: functional; details: time 16-20 hrs
Pseudomonas aeruginosa [5] = assay: Antibacterial activity against multidrug-resistant Pseudomonas aeruginosa PA14 4.18 harboring pmrB mutant incubated for 16 to 20 hrs in full muller hinton medium by broth microdilution method; type: functional; details: time 16-20 hrs
rRNA = assay: Binding affinity to [gamma32 P-ATP] labeled Escherichia coli MG1655 23S ribosomal RNA (5-CCCTTGGGACCTACTTC-3') at U2506 position assessed as increase in band intensity at 1 uM incubated for 2.5 hrs in full muller hinton medium by CMCT based gel electrophoresis; type: nucleic-acid assay
Klebsiella pneumoniae [6] = assay: Antimicrobial activity against Klebsiella pneumoniae NCTC 418 incubated for 16 to 20 hrs in full muller hinton medium by broth microdilution method; type: functional; details: time 16-20 hrs
Klebsiella pneumoniae [7] = assay: Antibacterial activity against multidrug-resistant Klebsiella pneumoniae clinical isolate OXA-48 incubated for 16 to 20 hrs in 12.5 % muller hinton medium by broth microdilution method; type: functional; details: time 16-20 hrs
Staphylococcus aureus [8] = assay: Antimicrobial activity against methicillin-resistant Staphylococcus aureus COL incubated for 16 to 20 hrs in 12.5 % muller hinton medium by broth microdilution method; type: functional; details: time 16-20 hrs
Bacteria = assay: Binding affinity to his-tagged DnaK (unknown origin) expressed in Escherichia coli BL21 (DE3) in dilute muller hinton medium by microscale thermophoresis analysis
Staphylococcus aureus [9] = assay: Antimicrobial activity against methicillin-resistant Staphylococcus aureus COL incubated for 16 to 20 hrs in full muller hinton medium by broth microdilution method; type: functional; details: time 16-20 hrs
Pseudomonas aeruginosa [10] = assay: Antibacterial activity against multidrug-resistant Pseudomonas aeruginosa clinical isolate ZEM9A incubated for 16 to 20 hrs in full muller hinton medium by broth microdilution method; type: functional; details: time 16-20 hrs
Klebsiella pneumoniae [11] = assay: Antibacterial activity against multidrug-resistant Klebsiella pneumoniae clinical isolate OXA-48 incubated for 16 to 20 hrs in full muller hinton medium by broth microdilution method; type: functional; details: time 16-20 hrs
Pseudomonas aeruginosa [12] = assay: Antibacterial activity against multidrug-resistant Pseudomonas aeruginosa PA14 2P4 harboring pmrB mutant incubated for 16 to 20 hrs in full muller hinton medium by broth microdilution method; type: functional; details: time 16-20 hrs
Enterobacter cloacae [13] = assay: Antibacterial activity against multidrug-resistant Enterobacter cloacae incubated for 16 to 20 hrs in full muller hinton medium by broth microdilution method; type: functional; details: time 16-20 hrs
Pseudomonas aeruginosa [14] = assay: Antibacterial activity against multidrug-resistant Pseudomonas aeruginosa clinical isolate ZEM-1A incubated for 16 to 20 hrs in full muller hinton medium by broth microdilution method; type: functional; details: time 16-20 hrs
Lipid bilayer [15] = assay: Induction of membrane disruption in egg yolk phosphatidyl choline at 10 ug/ml by measuring vesicle leakage; details: dose 10.0 µg/ml
Lipid bilayer [16] = assay: Induction of membrane disruption in egg yolk phosphatidyl glycerol at 10 ug/ml by measuring vesicle leakage; details: dose 10.0 µg/ml
[17] = Hemolytic activity in human RBC incubated for 4 hrs; type: toxicity, cell-based; details: erythrocyte
Pseudomonas aeruginosa [18] = assay: Antimicrobial activity against Pseudomonas aeruginosa PAO1 incubated for 16 to 20 hrs in 12.5 % muller hinton medium by broth microdilution method; type: functional; details: time 16-20 hrs
Acinetobacter baumannii [19] = assay: Antimicrobial activity against Acinetobacter baumannii ATCC 19606 incubated for 16 to 20 hrs in 12.5 % muller hinton medium by broth microdilution method; type: functional; details: time 16-20 hrs
Pseudomonas aeruginosa [20] = assay: Antibacterial activity against multidrug-resistant Pseudomonas aeruginosa clinical isolate ZEM-1A incubated for 16 to 20 hrs in 12.5 % muller hinton medium by broth microdilution method; type: functional; details: time 16-20 hrs
Pseudomonas aeruginosa [21] = assay: Antibacterial activity against multidrug-resistant Pseudomonas aeruginosa PA14 incubated for 16 to 20 hrs in 12.5 % muller hinton medium by broth microdilution method; type: functional; details: time 16-20 hrs
Pseudomonas aeruginosa [22] = assay: Antibacterial activity against multidrug-resistant Pseudomonas aeruginosa PA14 4.13 harboring phoQ mutant incubated for 16 to 20 hrs in 12.5 % muller hinton medium by broth microdilution method; type: functional; details: time 16-20 hrs
Pseudomonas aeruginosa [23] = assay: Antibacterial activity against multidrug-resistant Pseudomonas aeruginosa clinical isolate ZEM9A incubated for 16 to 20 hrs in 12.5 % muller hinton medium by broth microdilution method; type: functional; details: time 16-20 hrs
Enterobacter cloacae [24] = assay: Antibacterial activity against multidrug-resistant Enterobacter cloacae incubated for 16 to 20 hrs in 12.5 % muller hinton medium by broth microdilution method; type: functional; details: time 16-20 hrs
Escherichia coli [25] = assay: Antimicrobial activity against Escherichia coli W3110 incubated for 16 to 20 hrs in full muller hinton medium by broth microdilution method; type: functional; details: time 16-20 hrs
Pseudomonas aeruginosa [26] = assay: Antibacterial activity against multidrug-resistant Pseudomonas aeruginosa PA14 4.18 harboring pmrB mutant incubated for 16 to 20 hrs in 12.5 % muller hinton medium by broth microdilution method; type: functional; details: time 16-20 hrs
Escherichia coli [27] = assay: Antimicrobial activity against Escherichia coli W3110 incubated for 16 to 20 hrs in 12.5 % muller hinton medium by broth microdilution method; type: functional; details: time 16-20 hrs
Pseudomonas aeruginosa [28] = assay: Antibacterial activity against multidrug-resistant Pseudomonas aeruginosa PA14 2P4 harboring pmrB mutant incubated for 16 to 20 hrs in 12.5 % muller hinton medium by broth microdilution method; type: functional; details: time 16-20 hrs
Acinetobacter baumannii [29] = assay: Antimicrobial activity against Acinetobacter baumannii ATCC 19606 incubated for 16 to 20 hrs in full muller hinton medium by broth microdilution method; type: functional; details: time 16-20 hrs

| SMILES | MIC (Klebsiella pneumoniae [1]) | MIC (Pseudomonas aeruginosa [2]) | MIC (Pseudomonas aeruginosa [3]) | MIC (Pseudomonas aeruginosa [4]) | MIC (Pseudomonas aeruginosa [5]) | MIC (Klebsiella pneumoniae [6]) | MIC (Klebsiella pneumoniae [7]) | MIC (Staphylococcus aureus [8]) | MIC (Staphylococcus aureus [9]) | MIC (Pseudomonas aeruginosa [10]) | MIC (Klebsiella pneumoniae [11]) | MIC (Pseudomonas aeruginosa [12]) | MIC (Enterobacter cloacae [13]) | MIC (Pseudomonas aeruginosa [14]) | MHC [17] | MIC (Pseudomonas aeruginosa [18]) | MIC (Acinetobacter baumannii [19]) | MIC (Pseudomonas aeruginosa [20]) | MIC (Pseudomonas aeruginosa [21]) | MIC (Pseudomonas aeruginosa [22]) | other results |
| --- | --- | --- | --- | --- | --- | --- | --- | --- | --- | --- | --- | --- | --- | --- | --- | --- | --- | --- | --- | --- | --- |
| CCC(C)C(NC(=O)C(CCCNC(=N)N)NC(=O)C(CCCNC(=N)N)NC(=O)C1CCCN1C(=O)C1CCCN1C(=O)C(CCCNC(=N)N)NC(=O)C1CCCN1C(=O)C(CCCNC(=N)N)NC(=O)C1CCCN1C(=O)C(CC(C)C)NC(=O)C(Cc1ccc(O)cc1)NC(=O)C1CCCN1C(=O)C1CCCN1C(=O)C(CCCCN)NC(=O)C(CC(=O)O)NC(=O)C(N)C(C)C)C(=O)NC(Cc1ccc(O)cc1)C(=O)NC(CC(N)=O)C(=O)NC(CCCNC(=N)N)C(N)=O (configuration not stated) (H-VDKPPYLPRPRPPRRIYNR-NH2; configuration not given here) | > 16 µg/mL | > 64 µg/mL | > 64 µg/mL | > 64 µg/mL | > 64 µg/mL | > 64 µg/mL | > 64 µg/mL | > 64 µg/mL | > 64 µg/mL | > 64 µg/mL | > 64 µg/mL | > 64 µg/mL | > 64 µg/mL | > 64 µg/mL | > 1000 µg/mL | – | – | – | – | – | Activity (rRNA): inactive; Activity (Bacteria): inactive; Activity (Lipid bilayer [15]): Active; Activity (Lipid bilayer [16]): Active |
| CC(C)CCCCC(=O)N[C@@H](CCN)C(=O)N[C@H](C(=O)N[C@@H](CCN)C(=O)N[C@H]1CCNC(=O)[C@H]([C@@H](C)O)NC(=O)[C@H](CCN)NC(=O)[C@H](CCN)NC(=O)[C@H](CC(C)C)NC(=O)[C@@H](Cc2ccccc2)NC(=O)[C@H](CCN)NC1=O)[C@@H](C)O.CC[C@H](C)CCCCC(=O)N[C@@H](CCN)C(=O)N[C@H](C(=O)N[C@@H](CCN)C(=O)N[C@H]1CCNC(=O)[C@H]([C@@H](C)O)NC(=O)[C@H](CCN)NC(=O)[C@H](CCN)NC(=O)[C@H](CC(C)C)NC(=O)[C@@H](Cc2ccccc2)NC(=O)[C@H](CCN)NC1=O)[C@@H](C)O (X1-[Dab]T[Dab][Dab][Dab][dF]L[Dab][Dab]T; lactam 4-C) | 1 µg/mL | 0.5 µg/mL | > 0.5 µg/mL | 2 µg/mL | 2 µg/mL | 0.5 µg/mL | 1 µg/mL | 16 µg/mL | > 16 µg/mL | > 64 µg/mL | 1 µg/mL | 4 µg/mL | 2 µg/mL | 16 µg/mL | – | 1 µg/mL | 0.5 µg/mL | 8 µg/mL | 1 µg/mL | 2 µg/mL | MIC (Pseudomonas aeruginosa [23]): 2 µg/mL; MIC (Enterobacter cloacae [24]): 1 µg/mL; MIC (Escherichia coli [25]): 0.25 µg/mL; MIC (Pseudomonas aeruginosa [26]): 1 µg/mL; MIC (Escherichia coli [27]): 0.2 µg/mL; MIC (Pseudomonas aeruginosa [28]): 1 µg/mL; MIC (Acinetobacter baumannii [29]): 0.25 µg/mL |
| CC[C@H](C)[C@H](NC(=O)[C@H](CCCN)NC(=O)[C@H](CCCNC(=N)N)NC(=O)[C@@H]1CCCN1C(=O)[C@@H]1CCCN1C(=O)[C@H](CCCNC(=N)N)NC(=O)[C@@H]1CCCN1C(=O)[C@H](CCCNC(=N)N)NC(=O)[C@@H]1CCCN1C(=O)[C@H](CC(C)C)NC(=O)[C@H](Cc1ccc(O)cc1)NC(=O)[C@@H]1CCCN1C(=O)[C@@H]1CCCN1C(=O)[C@H](CCCCN)NC(=O)[C@H](CC(=O)O)NC(=O)[C@@H](N)C(C)C)C(=O)N[C@@H](Cc1ccc(O)cc1)C(=O)N[C@@H](CC(N)=O)C(=O)N[C@@H](CCCN)C(N)=O (H-VDKPPYLPRPRPPR[Orn]IYN[Orn]-NH2) | 4 µg/mL (≈ 1.73 µM) | > 64 µg/mL | > 32 µg/mL | > 32 µg/mL | > 32 µg/mL | 8 µg/mL (≈ 3.47 µM) | 2 µg/mL (≈ 0.867 µM) | > 64 µg/mL | > 64 µg/mL | > 64 µg/mL | 64 µg/mL (≈ 27.8 µM) | > 64 µg/mL | 32 µg/mL (≈ 13.9 µM) | > 64 µg/mL | > 1000 µg/mL | 16 µg/mL (≈ 6.94 µM) | 8 µg/mL (≈ 3.47 µM) | 16 µg/mL (≈ 6.94 µM) | 32 µg/mL (≈ 13.9 µM) | 32 µg/mL (≈ 13.9 µM) | MIC (Pseudomonas aeruginosa [23]): 32 µg/mL (≈ 13.9 µM); MIC (Enterobacter cloacae [24]): 1 µg/mL (≈ 0.434 µM); MIC (Escherichia coli [25]): 8 µg/mL (≈ 3.47 µM); MIC (Pseudomonas aeruginosa [26]): 32 µg/mL (≈ 13.9 µM); MIC (Escherichia coli [27]): 2 µg/mL (≈ 0.867 µM); MIC (Pseudomonas aeruginosa [28]): 16 µg/mL (≈ 6.94 µM); MIC (Acinetobacter baumannii [29]): 64 µg/mL (≈ 27.8 µM) |
